Literature values in US11559510B2, “Isoflavonoid composition with improved pharmacokinetics” (NOXOPHARM LIMITED, priority 2016, dated 2023).

Tested on: cancer cells
Details: cited from earlier work

For `Oc1ccc(C2=Cc3ccc(O)cc3OC2)cc1` [Idronoxil, 2H-1-Benzopyran-7-0,1,3-(4-hydroxyphenyl)], the “concentration where it kills about 10% of the cancer cells (sensitising use)” value (cancer cells in cell culture) is listed as 50 to 300 ng/mL, the “concentration that kills 50% of cancer cells in cell culture (IC50)” value (depending largely on the tumour type) is listed as 200 to 1200 ng/mL and the “direct cytotoxic or sensitising effect when drug added in a pulsatile manner” value (left in cancer cell culture for 2-3 hours and then removed) is listed as “largely ineffective”.
